In ChEMBL document CHEMBL3046897, “Synthesis of 3-{4-[4-dimethylamino-6-(4-methyl-2-oxo-2H-chromen-7-yloxy)-[1,3,5]triazin-2-ylamino]-phenyl}-2-phenyl-5-(4-pyridin-2-yl-piperazin-1-ylmethyl)-thiazolidin-4-one and their biological evaluation” (2012) one finds zone of inhibition, MIC and Activity data, which are given here for four compounds.

Experiment [1] deals with Staphylococcus aureus. Kind of experiment: Antibacterial activity against Staphylococcus aureus at 100 ug/disc after 24 hr by paper disk diffusion method. It counts as functional. The note with it: read-out: IZ. (In agar diffusion tests the substance spreads into inoculated agar from a disc or well.)
For experiment [2], the system named is Aspergillus niger. The experiment can be described thus: Antifungal activity against Aspergillus niger at 100 ug/disk after 48 hr by paper disk diffusion method. Type of experiment: functional. As to conditions: read-out: IZ.
The subject of experiment [3] is Proteus vulgaris. Kind of experiment: Antibacterial activity against Proteus vulgaris at 100 ug/disk after 24 hr by paper disk diffusion method. It counts as functional. As to conditions: read-out: IZ.
The test system of experiment [4] is Pseudomonas aeruginosa. Kind of experiment: Antibacterial activity against Pseudomonas aeruginosa after 24 hr by agar streak dilution method. Type of experiment: functional.
For experiment [5], the system named is Klebsiella pneumoniae. Kind of experiment: Antibacterial activity against Klebsiella pneumoniae at 100 ug/disk after 24 hr by paper disk diffusion method. It counts as functional. The note with it: read-out: IZ.
Experiment [6] relates to Candida albicans. Kind of experiment: Antifungal activity against Candida albicans at 100 ug/ml after 48 hr by agar streak dilution method. It counts as functional, organism-based.
Experiment [7] deals with Salmonella typhi. The experiment can be described thus: Antibacterial activity against Salmonella enterica subsp. enterica serovar Typhi after 24 hr by agar streak dilution method. It counts as functional.
The subject of experiment [8] is Klebsiella pneumoniae. The experiment can be described thus: Antibacterial activity against Klebsiella pneumoniae after 24 hr by agar streak dilution method. It counts as functional.
Experiment [9] deals with Staphylococcus aureus. Kind of experiment: Antibacterial activity against Staphylococcus aureus after 24 hr by agar streak dilution method. It counts as functional.
For experiment [10], the system named is Salmonella typhi. The experiment can be described thus: Antibacterial activity against Salmonella enterica subsp. enterica serovar Typhi at 100 ug/disk after 24 hr by paper disk diffusion method. It counts as functional. The note with it: read-out: IZ.
The test system of experiment [11] is Escherichia coli. Kind of experiment: Antibacterial activity against Escherichia coli at 100 ug/disk after 24 hr by paper disk diffusion method. Type of experiment: functional. As to conditions: read-out: IZ.
In experiment [12] the test system is Shigella flexneri. Kind of experiment: Antibacterial activity against Shigella flexneri after 24 hr by agar streak dilution method. Type of experiment: functional.
Experiment [13] has as its system Bacillus subtilis. The experiment can be described thus: Antibacterial activity against Bacillus subtilis at 100 ug/disk after 24 hr by paper disk diffusion method. Type of experiment: functional. As to conditions: read-out: IZ.
Experiment [14] has as its system Bacillus subtilis. Kind of experiment: Antibacterial activity against Bacillus subtilis after 24 hr by agar streak dilution method. It counts as functional.
The subject of experiment [15] is Aspergillus clavatus. Kind of experiment: Antifungal activity against Aspergillus clavatus at 100 ug/disc after 48 hr by paper disk diffusion method. Type of experiment: functional. As to conditions: read-out: IZ.
For experiment [16], the system named is Aspergillus niger. Kind of experiment: Antifungal activity against Aspergillus niger after 48 hr by agar streak dilution method. It counts as functional.
Experiment [17] relates to Aspergillus clavatus. Kind of experiment: Antifungal activity against Aspergillus clavatus after 48 hr by agar streak dilution method. Type of experiment: functional.
The test system of experiment [18] is Aspergillus fumigatus. The experiment can be described thus: Antifungal activity against Aspergillus fumigatus after 48 hr by agar streak dilution method. Type of experiment: functional.
Experiment [19] deals with Escherichia coli. The experiment can be described thus: Antibacterial activity against Escherichia coli after 24 hr by agar streak dilution method. It counts as functional.
In experiment [20] the test system is Shigella flexneri. Kind of experiment: Antibacterial activity against Shigella flexneri at 100 ug/disc after 24 hr by paper disk diffusion method. Type of experiment: functional. The note with it: read-out: IZ.
The test system of experiment [21] is Proteus vulgaris. Kind of experiment: Antibacterial activity against Proteus vulgaris after 24 hr by agar streak dilution method. Type of experiment: functional.
The test system of experiment [22] is Pseudomonas aeruginosa. The experiment can be described thus: Antibacterial activity against Pseudomonas aeruginosa at 100 ug/disk after 24 hr by paper disk diffusion method. It counts as functional. The note with it: read-out: IZ.
Experiment [23] has as its system Aspergillus fumigatus. The experiment can be described thus: Antifungal activity against Aspergillus fumigatus at 100 ug/disc after 48 hr by paper disk diffusion method. The note with it: read-out: IZ. It counts as functional.
The test system of experiment [24] is Candida albicans. The experiment can be described thus: Antifungal activity against Candida albicans at 100 ug/disk after 48 hr by paper disk diffusion method. Type of experiment: functional. The note with it: read-out: IZ.
Experiment [25] deals with Candida albicans. Kind of experiment: Antifungal activity against Candida albicans after 48 hr by agar streak dilution method. Type of experiment: functional.

Structures are written as SMILES. In brackets after ≈: the same amount, converted by molar mass. Activity calls are given as the source filed them. Bounds are passed on as bounds.

In general, MIC refers to the smallest concentration in the dilution series that meets the test's criterion for growth inhibition. `Cc1cc(=O)oc2cc(Oc3nc(Nc4ccc(N5C(=O)CSC5c5ccccc5C(=O)O)cc4)nc(N(C)C)n3)ccc12` (stereo not given): the zone of inhibition at 100 µg/disc in [1] is 16 mm; in experiment [2] it was 12 mm; in [3] it was 11 mm; in experiment [5] it was 12 mm; in [10], under 10 mm; in experiment [11], under 10 mm. The zone of inhibition at 100 µg/disc in experiment [13] stood at 14 mm; in [15], 13 mm; in experiment [20], 14 mm; in experiment [22] it was 14 mm; in [23] it was 10 mm. For the same compound, the MIC in experiment [4], in [7], in [8], in [9], in experiment [12] and in [14] was 100 µg/mL (≈ 164 µM) each time. Besides, the MIC in experiment [16], in [17], in experiment [18], in [19] and in experiment [21] was 100 µg/mL (≈ 164 µM) each time. Also, the result in experiment [6] was inactive.
With `Cc1ccc(C2SC(CN3CCN(c4ccccn4)CC3)C(=O)N2c2ccc(Nc3nc(Oc4ccc5c(C)cc(=O)oc5c4)nc(N(C)C)n3)cc2)cc1` (stereo not given), the zone of inhibition at 100 µg/disc was determined as 20 mm in experiment [1]; 23 mm in [2]; 18 mm in experiment [3]; 19 mm in experiment [5]; 21 mm in [10]; 18 mm in [11]. In addition, the zone of inhibition at 100 µg/disc came out at 24 mm in experiment [24]; 22 mm in experiment [13]; 22 mm in experiment [15]; 22 mm in experiment [20]; 22 mm in [22]; 20 mm in [23]. In addition, the minimal inhibitory concentration (MIC) in experiment [4] was found to be 50 µg/mL (≈ 66.1 µM); in [7], 25 µg/mL (≈ 33.1 µM); in experiment [8], 50 µg/mL (≈ 66.1 µM); in experiment [9], 25 µg/mL (≈ 33.1 µM); in experiment [12], 25 µg/mL (≈ 33.1 µM); in experiment [14] it was 12.5 µg/mL (≈ 16.5 µM). Besides, the MIC in experiment [16] stood at 12.5 µg/mL (≈ 16.5 µM); in experiment [17], 25 µg/mL (≈ 33.1 µM); in [18] it was 25 µg/mL (≈ 33.1 µM); in experiment [19], 50 µg/mL (≈ 66.1 µM); in [25] it was 12.5 µg/mL (≈ 16.5 µM); in experiment [21] it was 50 µg/mL (≈ 66.1 µM).
On to `Cc1cc(=O)oc2cc(Oc3nc(Nc4ccc(N5C(=O)CSC5c5cccc(F)c5)cc4)nc(N(C)C)n3)ccc12` (stereo not given), for which the zone of inhibition at 100 µg/disc in experiment [1] turned out to be 17 mm; in [2], 20 mm; in [3], 17 mm; in experiment [5], 18 mm; in [10], 20 mm; in experiment [11], 23 mm. The zone of inhibition at 100 µg/disc amounted to 18 mm in [24]; 19 mm in [13]; 21 mm in [15]; 22 mm in experiment [20]; 19 mm in [22]; 17 mm in experiment [23]. The MIC in experiment [4] is 50 µg/mL (≈ 85.5 µM); in experiment [7], 25 µg/mL (≈ 42.8 µM); in experiment [8], 50 µg/mL (≈ 85.5 µM); in experiment [9], 50 µg/mL (≈ 85.5 µM); in [12], 25 µg/mL (≈ 42.8 µM); in experiment [14] it was 50 µg/mL (≈ 85.5 µM). Also, the MIC in experiment [16] worked out at 25 µg/mL (≈ 42.8 µM); in experiment [17], 25 µg/mL (≈ 42.8 µM); in [18], 50 µg/mL (≈ 85.5 µM); in [19] it was 25 µg/mL (≈ 42.8 µM); in experiment [25], 50 µg/mL (≈ 85.5 µM); in experiment [21] it was 50 µg/mL (≈ 85.5 µM).
On to `Cc1cc(=O)oc2cc(Oc3nc(Nc4ccc(/N=C/c5ccc(Cl)cc5Cl)cc4)nc(N(C)C)n3)ccc12`, for which the zone of inhibition at 100 µg/disc in [1] was 14 mm; in [2] it was 11 mm; in [3], 16 mm; in experiment [5], 17 mm; in experiment [10], 14 mm; in experiment [11] it was 13 mm. The zone of inhibition at 100 µg/disc in experiment [24] was determined as 12 mm; in experiment [13], 17 mm; in experiment [15] it was 17 mm; in [20] it was 14 mm; in [22], 12 mm; in [23] it was 13 mm. For the same compound, the MIC in experiment [4] was 100 µg/mL (≈ 178 µM); in [7], 100 µg/mL (≈ 178 µM); in experiment [8], 50 µg/mL (≈ 89.1 µM); in [9], 100 µg/mL (≈ 178 µM); in [12], 100 µg/mL (≈ 178 µM); in [14], 50 µg/mL (≈ 89.1 µM). The minimal inhibitory concentration (MIC) stood at 100 µg/mL (≈ 178 µM) in [16]; 50 µg/mL (≈ 89.1 µM) in experiment [17]; 100 µg/mL (≈ 178 µM) in experiment [18]; 100 µg/mL (≈ 178 µM) in [19]; 100 µg/mL (≈ 178 µM) in [25]; 50 µg/mL (≈ 89.1 µM) in [21].
